In PMC11312998, “Molecular Pro-Apoptotic Activities of Flavanone Derivatives in Cyclodextrin Complexes: New Implications for Anticancer Therapy” (International Journal of Molecular Sciences, 2024):
Like-named read-outs stand apart in the source and are kept apart here.

Legend:
[1] = MTT cytotoxicity assay, model of normal cells; type: cell-based; settings: human, HMEC-1 cells (model of normal cells), 24 h incubation, mean ± SEM, read-out: Cytotoxic effect, IC50
Method: (§1) Cell viability was determined using the metabolic microplate spectrophotometric assay with Methylthiazolyl diphenyltetrazolium bromide (MTT), i.e., 3-(4,5-Dimethyl-2-thiazolyl)-2,5-diphenyl-2H-tetrazolium bromide (Sigma-Aldrich; St. Louis, MO, USA). The anticancer activity of the investigated compounds was evaluated in vitro on the basis of their ability to inhibit the proliferation of various cancer cells. The appropriate number of cells for a given cell line (6–8 × 10^3 cells/mL) were seeded into sterile, colorless 96-well microplates. After 24 h of culture, specific wells of the microplate were treated with test compounds (10–200 µmol/L concentration) and incubated in a CO2 incubator for 24 h. The medium was then removed, the cell monolayer was washed twice with sterile PBS solution and fresh culture medium was added to the wells of the microplate.
(§2) After 48 h of cell culture, the MTT test was conducted. In each well of the microplate, 50 µL of tetrazolium salt solution (final concentration 0.05 mg/mL) was added. The microplate was then placed in a CO2 incubator for 3–4 h (depending on the cell line). Following incubation, 100 µL of DMSO (dimethyl sulfoxide, Sigma-Aldrich, St. Louis, MO, USA) was added to the microplate wells to dissolve the purple formazan crystals formed in the environment of living cells. The absorbance of the formazan solution was read at a wavelength of λ = 580 nm and a reference wavelength of λ = 720 nm after gentle mixing (Biotek Power Wave HT, Biotek Instruments, Winooski, VT, USA).
The percentage of live cells was calculated by comparing the absorbance value of the tested samples with that of the control (cells not treated with compounds). Control absorbance was arbitrarily considered to be 100%.

[2] = system: Ishikawa; experiment: MTT cytotoxicity assay; type: cell-based; settings: Homo sapiens
Method: as §1, §2
The percentage of live cells was calculated by comparing the absorbance value of the tested samples with that of the control (cells not treated with compounds). Control absorbance was arbitrarily considered to be 100%. […]

[3] = system: MCF-7; experiment: Mitochondrial potential (ΔΨm), JC-1 method; type: cell-based, human; settings: IC50 concentration, 24 h
Description: (§3) 5,5,6,6-Tetrachloro-1,1,3,3-tetraethylbenzimidazolylcarbocyanine iodide (JC-1) is a cationic carbocyanine dye commonly used as a fluorescent probe to detect mitochondrial membrane depolarization. In living cells with an intact mitochondrial membrane, the lipophilic JC-1 penetrates the negatively charged mitochondrial matrix as a monomer. It then forms fluorescent aggregates with red-orange fluorescence (λex = 514 nm, λem = 590 nm). During depolarization of the mitochondrial membrane or in apoptotic cells, the concentration of JC-1 decreases, and the aggregates disintegrate into monomers emitting green fluorescence (λex = 514 nm, λem = 529 nm). The fluorescence ratio of aggregates (λem = 590 nm) and monomers (λem = 529 nm)—590 nm/529 nm—reflects the level of damage to the mitochondrial membrane.
(§4) The cells were seeded in black 96-well fluorometric microplates at a density of 10 × 10^3 cells per well. […] After incubation with the compounds, the medium was removed, the cell monolayer in the wells was washed twice with HBSS (140 mM NaCl, 5 mM KCl, 0.8 mM MgCl2, 1.8 mM CaCl2, 1 mM Na2HPO4, 10 mM HEPES and 1% glucose) and 50 μL of JC-1 solution in HBSS was added to each well (final probe concentration 5 μmol/L). Cells were incubated with the probe for 30 min in the dark in an incubator (37 °C). After incubation, the probe was removed and replaced with fresh HBSS buffer. Fluorescence measurements (Perkin-Elmer LS-5B spectrofluorometer, MA, USA) of JC-1 monomers and aggregates were made at the following excitation and emission wavelengths: λex = 514 nm, λem = 529 nm (monomers), λex = 514 nm, λem = 590 nm (aggregates). The results of the tested samples are presented as the percentage fluorescence ratio of JC-1 aggregates and JC-1 monomers relative to the fluorescence ratio of JC-1 aggregates and JC-1 monomers of the control, which was assumed to be 100%.
(§5) A positive control was formed of cells pre-incubated with 5 µmol/L carbonyl cyanide m-chlorophenylhydrazone (CCCP), a chemical inhibitor of oxidative phosphorylation that acts by uncoupling the protons flowing along the electrochemical gradient from phosphorylation.

[4] = system: Ishikawa; experiment: Mitochondrial potential (ΔΨm), JC-1 method; type: cell-based, human; settings: IC50 concentration, 24 h
Description: as §3, §4, §5

[5] = system: Hec-1-A; experiment: Mitochondrial potential (ΔΨm), JC-1 method; type: cell-based, human; settings: IC50 concentration, 24 h
Description: as §3, §4, §5

[6] = system: colon cancer lines; experiment: GSH concentration in cancer cells (other studies, not yet published); type: cell-based; settings: results not yet published
[7] = system: MCF-7; experiment: Superoxide anion generation, DHE probe; type: cell-based, human; settings: IC50 concentration, 24 h
Method: (§6) The level of superoxide anion (O2^•−) was determined by microplate spectrofluorimetry with dihydroethidium (hydroethidine, DHE) (Life Technologies, Carlsbad, CA, USA), which is the most commonly used fluorogenic probe for monitoring the intracellular production of superoxide anion O2^•− [41]. […] Thanks to this shift, DHE can be used as a sensitive probe for cellular ROS. The reaction between superoxide and DHE generates a highly specific red fluorescent product, 2-hydroxyethidium (2-OH-E^+).
(§7) The cells were seeded in black 96-well fluorometric microplates at a density of 10 × 10^3 cells per well. […] After incubation, the medium was removed, the cell monolayer in the wells was washed twice with HBSS (140 mM NaCl, 5 mM KCl, 0.8 mM MgCl2, 1.8 mM CaCl2, 1 mM Na2HPO4, 10 mM HEPES and 1% glucose) and 50 μL of DHE solution in HBSS was added to each well (final probe concentration 5 μmol/L). Cells were incubated with the probe for 30 min in the dark in an incubator (37 °C), and then fluorescence was measured. The measurement was performed at the following excitation and fluorescence emission wavelengths: λex = 498 nm/λem = 582 nm. Fluorescence measurements were made on a Perkin-Elmer LS-5B spectrofluorometer (MA, USA). Fluorescence intensity values for control cells were arbitrarily set as 100%. The results are presented as percentages of control cell values, calculated relative to the fluorescence intensity of the controls (100%): sample fluorescence was calculated as Δf in relation to the controls.

[8] = system: Ishikawa; experiment: Superoxide anion generation, DHE probe; type: cell-based, human; settings: IC50 concentration, 24 h
Method: as §6, §7

[9] = Ishikawa vs HMEC-1, read-out: IC50 in Ishikawa lower than that for HMEC-1, difference
[10] = Ishikawa, 24 h incubation, mean ± SEM, read-out: Cytotoxic effect, IC50

Structure (SMILES)	IC50 at 24 h [1]	IC50 [2, 9]	IC50 [2, 10]	decrease in ΔΨm (depolarization) compared to the control [3]	decrease in ΔΨm [4]	hyperpolarization of ΔΨm compared to control [5]	GSH concentration in cancer cells (in words) [6]	greater superoxide anion level relative to control (DHE probe) [7]	greater superoxide anion level relative to control (DHE probe) [8]	hyperpolarization of ΔΨm [3]	changes in ΔΨm (in words) [5]	hyperpolarization of mitochondrial membranes relative to controls [4]
O=C1/C(=C/c2ccccc2)COc2ccccc21 [Compound 1]	21.2 ± 3.1 µM	~10 µM	10.2 ± 1.8 µM	approximately 17%	approximately 30%	approximately 30%	decrease in GSH concentration	–	–	–	–	–
COc1cccc(/C=C2/C(=O)c3ccccc3OC2c2ccccc2)c1 (stereo not shown) [Compound 3]	24.1 ± 1.3 µM	~10 µM	15.2 ± 1.6 µM	–	about 15%	–	decrease in GSH concentration	approximately 20%	approximately 20%	approximately 30%	no changes in ΔΨm were observed	–
O=C1/C(=C/c2ccccc2)C(c2ccccc2)Oc2ccccc21 (stereo not shown) [Compound 5]	19.7 ± 3.7 µM	~10 µM	18.6 ± 4.4 µM	–	–	–	decrease in GSH concentration	~30%	~30%	~40%	no changes in ΔΨm were observed	approximately 30%
